This passage reports melting point and IC90 results from patent US6489320B1, “5, 5-disubstituted-1, 5-dihydro-4, 1-benzoxazepin-2 (3H)-ones useful as HIV reverse transcriptase inhibitors” (Bristol-Myers Squibb Pharma Company, priority 1997, dated 2002).

Data set [1] has as its system HIV-1 (RF). The data set is described as follows: HIV RNA assay: microplate based compound evaluation in HIV-1 infected MT-2 cells. To be noted: Human immunodeficiency virus 1, MT2, 72 h; HIV-1 (RF) infected MT-2 cells, 3 days; virus dilutions selected to give this value (standardization of inoculum); read-out: IC90 value (concentration of compound required to reduce the HIV RNA level by 90%). Format: cell-based. The protocol: Plasmid pDAB 72 containing both gag and pol sequences of BH10 (bp 113-1816) cloned into PTZ 19R was prepared according to Erickson-Viitanen et al. AIDS Research and Human Retroviruses 1989, 5, 577. The plasmid was linearized with Bam HI prior to the generation of in vitro RNA transcripts using the Riboprobe Gemini system II kit (Promega) with T7 RNA polymerase. Synthesized RNA was purified by treatment with RNase free DNAse (Promega), phenol-chloroform extraction, and ethanol precipitation. RNA transcripts were dissolved in water, and stored at −70° C. The concentration of RNA was determined from the A260.
Biotinylated capture probes were purified by HPLC after synthesis on an Applied Biosystems (Foster City, Calif.) DNA synthesizer by addition of biotin to the 5′ terminal end of the oligonucleotide, using the biotin-phosphoramidite reagent of Cocuzza, Tet. Lett. 1989, 30, 6287. […]
MT-2 and MT-4 cells were maintained in RPMI 1640 supplemented with 5% fetal calf serum (FCS) for MT-2 cells or 10% FCS for MT-4 cells, 2 mM L-glutamine and 50 μg/mL gentamycin, all from Gibco. […] Infectious titers of HIV-1(RF) stocks were 1-3×10^7 PFU (plaque forming units)/mL as measured by plaque assay on MT-2 cells (see below). […]

Values after ≈ are worked out from the molar mass of the structure shown.

In general, melting point refers to the temperature, or range, at which the solid turns liquid. Regarding `O=C1COC(C#CC2CC2)(C(F)(F)F)c2cc(Cl)ccc2N1` (centres unmarked) [Example 18, 7-Chloro-5-cyclopropylethynyl-1,5-dihydro-5-(trifluoromethyl)-4,1-benzoxazepin-2(3H)-one], the melting point lay in the range of 199.5 to 200.5 °C. Compound `CC(C)/C=C/C1(C(F)(F)F)OCC(=O)Nc2ccc(Cl)cc21` (stereo not drawn) [Example 20, trans-7-Chloro-5-(2-isopropylethenyl)-1,5-dihydro-5-(trifluoromethyl)-4,1-benzoxazepin-2(3H)-one] came in with a melting point of 148 to 149 °C. Take `COc1ccc2c(c1)C(CCC(C)C)(C(F)(F)F)OCC(=O)N2` (centres unmarked) [Example 21, 7-Methoxy-5-(3-methylbutyl)-1,5-dihydro-5-(trifluoromethyl)-4,1-benzoxazepin-2(3H)-one]: the melting point lay within 129 to 130 °C. The compound `O=C1COC(C#Cc2cccnc2)(C(F)(F)F)c2cc(Cl)ccc2N1` (centres unmarked) [Example 24, 7-Chloro-5-(3-pyridylethynyl)-1,5-dihydro-5-(trifluoromethyl)-4,1-benzoxazepin-2(3H)-one] yielded a melting point of 219 to 221 °C. In turn, `CC(C)/C=C/C1(C(F)(F)F)OCC(=O)Nc2ccc(F)c(F)c21` (stereo not drawn) [Example 27, trans-6,7-Difluoro-5-(2-isopropylethenyl)-1,5-dihydro-5-(trifluoromethyl)-4,1-benzoxazepin-2(3H)-one] gave a melting point of 159 to 160 °C. On the same count and under the same terms, to `C[C@@H]1O[C@](C#CC2CC2)(C(F)(F)F)c2cc(Cl)ccc2NC1=O` [Example 36, (+)-(3S,5S)-7-Chloro-5-cyclopropylethynyl-1,5-dihydro-3-methyl-5-(trifluoromethyl)-4,1-benzoxazepin-2(3H)-one] belongs 145 to 146 °C; to `C[C@@H]1O[C@](/C=C/C2CC2)(C(F)(F)F)c2cc(Cl)ccc2NC1=O` [Example 39, (+)-(3S,5S)-trans-7-Chloro-5-(2-cyclopropylethenyl)-1,5-dihydro-3-methyl-5-(trifluoromethyl)-4,1-benzoxazepin-2(3H)-one], 175 to 175.5 °C. For the compound `Nc1ccn([C@H]2CC[C@@H](CO)O2)c(=O)n1` [ddC, 2′,3′-dideoxycytidine], the IC90 in data set [1] amounted to 0.2 µg/mL (≈ 0.947 µM).
